± gives the expanded uncertainty stated by the source.
Columns and labels:
[1] = Boiling temperature at pressure P; settings: Liquid, Ebulliometric method (Recirculating still)
[2] = Liquid; for mass density: 293.15 K, 101.33 kPa, Pycnometric method
[3] = refractive index (Na D-line) (dimensionless); settings: 101.33 kPa, Liquid, Standard Abbe refractometry

| Boiling temperature at pressure P ([1]; 5.01 kPa) | Boiling temperature at pressure P ([1]; 9.98 kPa) | Boiling temperature at pressure P ([1]; 14.69 kPa) | Boiling temperature at pressure P ([1]; 19.75 kPa) | Boiling temperature at pressure P ([1]; 26.67 kPa) | Boiling temperature at pressure P ([1]; 40.02 kPa) | Boiling temperature at pressure P ([1]; 53.72 kPa) | Boiling temperature at pressure P ([1]; 65.01 kPa) | Boiling temperature at pressure P ([1]; 79.21 kPa) | Boiling temperature at pressure P ([1]; 90 kPa) | Boiling temperature at pressure P ([1]; 101.33 kPa) | Boiling temperature at pressure P ([1]; 116.34 kPa) | Boiling temperature at pressure P ([1]; 120 kPa) | Boiling temperature at pressure P ([1]; 125.01 kPa) | Boiling temperature at pressure P ([1]; 130 kPa) | mass density [2] | refractive index ([3]; 293.15 K) | refractive index ([3]; 298.15 K) | vapor or sublimation pressure ([2]; 381.1 K, Ebulliometric method (Recirculating still)) | Compound |
| --- | --- | --- | --- | --- | --- | --- | --- | --- | --- | --- | --- | --- | --- | --- | --- | --- | --- | --- | --- |
| 33.5 ± 0.18 °C | 47 ± 0.16 °C | 55.23 ± 0.13 °C | 62.17 ± 0.12 °C | 69.60 ± 0.11 °C | 80.57 ± 0.11 °C | 89.19 ± 0.11 °C | 95.2 ± 0.1 °C | 101.51 ± 0.1 °C | 105.86 ± 0.1 °C | 109.98 ± 0.1 °C | 115.03 ± 0.1 °C | 116.21 ± 0.1 °C | 117.72 ± 0.1 °C | 119.27 ± 0.1 °C | 832.5 ± 1 kg/m3 | 1.385 ± 0.0007 | 1.3827 ± 0.0007 |  | COCOCC(C)C [1-(methoxymethoxy)-2-methylpropane] |
|  |  |  |  |  |  |  |  |  |  |  |  |  |  |  | 801.8 ± 1 kg/m3 |  | 1.3939 ± 0.0007 | 101.33 ± 0.51 kPa | CC(C)CO [2-methyl-1-propanol] |
|  |  |  |  |  |  |  |  |  |  |  |  |  |  |  | 809.5 ± 1 kg/m3 |  | 1.3971 ± 0.0007 |  | CCCCO [butan-1-ol] |
